# According to patent US12138256B2, “Treatment of cardiopulmonary disorders” (Bayer Aktiengesellschaft, priority 2021, dated 2024):
# Where “and” joins values, the source holds several entries; their conditions need not be identical. Equal entries are not always repeated.
# Tested on: anesthetized PAH minipigs
# Experiment: PAH minipig model: intratracheal application of dry powder formulations and different hydrates (PennCentury insufflator)
# Type: in vivo, Göttingen minipig
# Settings: for BP (mean) / PAP(mean) / BP % changes vs. prevalues / PAP % changes vs. prevalues: 375 μg/kg i.t.; for BP (mean) / PAP(mean): absolute values; for BP % changes vs. prevalues / PAP % changes vs. prevalues: each animal
# Source text: After characterization of the effects of comparative example 11 after nebulization of compound solutions, in a further step the effects of crystalline forms of comparative example 11, e.g. sesquihydrate, e.g. example 6e on PAP and BP after inhaled application of different dry powder lactose formulations (table C2.1.8) were studied in anesthetized PAH minipigs.
# As reference pure Lactose vehicle was applied in the beginning of each experiment.
smiles,measurement,setting,value
"O.O=C(O)c1ccc(CCN(CCc2ccccc2OCc2ccc(-c3ccc(C(F)(F)F)cc3)cc2Cl)[C@H]2CCCc3nc(C(=O)O)ccc32)cc1.O=C(O)c1ccc(CCN(CCc2ccccc2OCc2ccc(-c3ccc(C(F)(F)F)cc3)cc2Cl)[C@H]2CCCc3nc(C(=O)O)ccc32)cc1 [example 6a, (5S)-{[2-(4-Carboxyphenyl)ethyl][2-(2-{[3-chloro-4′-(trifluoromethyl)biphenyl-4-yl]methoxy}phenyl)-ethyl]amino}-5,6,7,8-tetrahydroquinoline-2-carboxylic acid semihydrate]",efficacy with regard to PAP reduction as well as systemic BP reduction,"1.5 mg/4 kg (=375 μg/kg) intratracheally, micronized",comparable efficacy
same,BP (mean),time 0,101 mmHg and 85 mmHg
same,PAP(mean),time 0,39.6 mmHg and 40.8 mmHg and 38.5 mmHg
same,BP (mean),time 10,103 mmHg and 83 mmHg and 79 mmHg
same,PAP(mean),time 10,40.2 mmHg and 41.1 mmHg
same,BP (mean),time 20,101 mmHg and 83 mmHg and 84 mmHg
same,PAP(mean),time 20,40.4 mmHg and 41.3 mmHg
same,BP (mean),time 30,100 mmHg and 81 mmHg and 88 mmHg
same,PAP(mean),time 30,40.2 mmHg and 41.3 mmHg
same,BP (mean),time 40,98 mmHg and 81 mmHg and 90 mmHg
same,PAP(mean),time 40,40.4 mmHg and 41.8 mmHg and 41.0 mmHg
same,BP (mean),time 50,99 mmHg and 78 mmHg and 89 mmHg
same,PAP(mean),time 50,40.7 mmHg and 41.7 mmHg and 40.9 mmHg
same,BP % changes vs. prevalues,time 50,99.6% and 98.4% and 100.6%
same,PAP % changes vs. prevalues,time 50,99.3% and 98.7% and 98.9%
same,BP (mean),time 60,100 mmHg and 79 mmHg and 86 mmHg
same,PAP(mean),time 60,41.2 mmHg and 42.0 mmHg and 40.9 mmHg
same,BP % changes vs. prevalues,time 60,100.6% and 99.7% and 97.2%
same,PAP % changes vs. prevalues,time 60,100.7% and 99.4% and 99.2%
same,BP (mean),time 70,102 mmHg and 78 mmHg and 87 mmHg
same,PAP(mean),time 70,38.8 mmHg and 40.6 mmHg and 40.1 mmHg
same,BP % changes vs. prevalues,time 70,102.6% and 98.4% (2×)
same,PAP % changes vs. prevalues,time 70,94.7% and 96.1% and 97.0%
same,BP (mean),time 80,102 mmHg and 79 mmHg and 90 mmHg
same,PAP(mean),time 80,34.1 mmHg and 39.9 mmHg and 37.7 mmHg
same,BP % changes vs. prevalues,time 80,102.6% and 99.7% and 101.8%
same,PAP % changes vs. prevalues,time 80,83.4% and 94.5% and 91.2%
same,BP (mean),time 90,101 mmHg and 81 mmHg and 92 mmHg
same,PAP(mean),time 90,30.1 mmHg and 37.7 mmHg and 36.6 mmHg
same,BP % changes vs. prevalues,time 90,101.6% and 102.2% and 104.0%
same,PAP % changes vs. prevalues,time 90,73.4% and 89.2% and 88.7%
same,BP (mean),time 100,100 mmHg and 80 mmHg and 95 mmHg
same,PAP(mean),time 100,28.3 mmHg and 35.9 mmHg and 35.0 mmHg
same,BP % changes vs. prevalues,time 100,100.6% and 101.0% and 107.4%
same,PAP % changes vs. prevalues,time 100,69.0% and 85.0% and 84.7%
same,BP (mean),time 110,99 mmHg and 79 mmHg
same,PAP(mean),time 110,27.2 mmHg and 34.8 mmHg and 34.0 mmHg
same,BP % changes vs. prevalues,time 110,99.6% and 99.7% and 111.9%
same,PAP % changes vs. prevalues,time 110,66.5% and 82.4% and 82.1%
same,BP (mean),time 120,99 mmHg and 79 mmHg and 96 mmHg
same,PAP(mean),time 120,26.4 mmHg and 34.1 mmHg and 32.9 mmHg
same,BP % changes vs. prevalues,time 120,99.6% and 99.7% and 108.6%
same,PAP % changes vs. prevalues,time 120,64.4% and 80.8% and 79.7%
same,BP (mean),time 130,98 mmHg and 81 mmHg and 97 mmHg
same,PAP(mean),time 130,25.7 mmHg and 33.7 mmHg and 31.7 mmHg
same,BP % changes vs. prevalues,time 130,98.6% and 102.2% and 109.7%
same,PAP % changes vs. prevalues,time 130,62.8% and 79.9% and 76.7%
same,BP (mean),time 140,99 mmHg and 82 mmHg and 98 mmHg
same,PAP(mean),time 140,25.3 mmHg and 33.2 mmHg and 31.3 mmHg
same,BP % changes vs. prevalues,time 140,99.6% and 103.5% and 110.8%
same,PAP % changes vs. prevalues,time 140,61.8% and 78.7% and 75.7%
same,BP (mean),time 150,97 mmHg and 82 mmHg
same,PAP(mean),time 150,25.0 mmHg and 32.9 mmHg and 30.7 mmHg
same,BP % changes vs. prevalues,time 150,97.6% and 103.5% and 109.7%
same,PAP % changes vs. prevalues,time 150,60.9% and 78.0% and 74.3%
same,PAP(mean),time 160,24.5 mmHg and 32.5 mmHg and 30.2 mmHg
same,BP % changes vs. prevalues,time 160,96.6% and 102.2% and 109.7%
same,PAP % changes vs. prevalues,time 160,59.9% and 77.1% and 73.1%
same,BP % changes vs. prevalues,time 170,95.6% and 99.7% and 107.4%
same,PAP % changes vs. prevalues,time 170,58.6% and 76.7% and 72.3%
same,BP % changes vs. prevalues,time 180,94.6% and 99.7% and 106.3%
same,PAP % changes vs. prevalues,time 180,58.0% and 75.4% and 71.8%
same,BP % changes vs. prevalues,time 190,94.6% and 108.5% and 105.2%
same,PAP % changes vs. prevalues,time 190,59.5% and 78.4% and 70.7%
same,BP % changes vs. prevalues,time 200,92.6% and 107.3% and 104.0%
same,PAP % changes vs. prevalues,time 200,60.5% and 76.8% and 71.1%
same,BP % changes vs. prevalues,time 210,90.6% and 102.2% and 102.9%
same,PAP % changes vs. prevalues,time 210,60.6%
same,BP (mean),time −10,99 mmHg and 85 mmHg and 86 mmHg
same,PAP(mean),time −10,38.7 mmHg and 40.6 mmHg
